The source of these data is patent US10077261B2, “Imidazolin-5-one derivative useful as FASN inhibitors for the treatment of cancer” (Janssen Pharmaceutica NV, priority 2012, dated 2018).

For the test, the target named is T1, hFASN enzyme (full length) (Homo sapiens, UniProt P49327).
T1 construct: 10 μL hFASN enzyme (full length, 300 ng, purified in house); made in house
As to the kind of experiment: Fatty Acid Synthase (FASN) inhibition scintillation proximity assay. The class given is biochemical. As to conditions: for inhibition at 10 µM: read-out: Human FASN % inhibition @ 10 μM, 10 μM test compound; for IC50: read-out: Human FASN pIC50 (converted). In a few lines: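 Compounds at 0.01–30 μM were mixed with 300 ng purified full-length enzyme in 100 mM KH2PO4 pH 7.5, 1 mM DTT. Substrates ³H-acetyl-CoA and malonyl-CoA were then converted, and bead addition stopped the reaction. Signal was normalised to low and high plate controls and fitted by 4-parameter nonlinear regression.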
For orientation: In a scintillation proximity assay essentially only radioactivity close to the scintillant gives light.

A value given as a limit tells only on which side of the number the result lay.

T1 sequence (P49327 whole entry): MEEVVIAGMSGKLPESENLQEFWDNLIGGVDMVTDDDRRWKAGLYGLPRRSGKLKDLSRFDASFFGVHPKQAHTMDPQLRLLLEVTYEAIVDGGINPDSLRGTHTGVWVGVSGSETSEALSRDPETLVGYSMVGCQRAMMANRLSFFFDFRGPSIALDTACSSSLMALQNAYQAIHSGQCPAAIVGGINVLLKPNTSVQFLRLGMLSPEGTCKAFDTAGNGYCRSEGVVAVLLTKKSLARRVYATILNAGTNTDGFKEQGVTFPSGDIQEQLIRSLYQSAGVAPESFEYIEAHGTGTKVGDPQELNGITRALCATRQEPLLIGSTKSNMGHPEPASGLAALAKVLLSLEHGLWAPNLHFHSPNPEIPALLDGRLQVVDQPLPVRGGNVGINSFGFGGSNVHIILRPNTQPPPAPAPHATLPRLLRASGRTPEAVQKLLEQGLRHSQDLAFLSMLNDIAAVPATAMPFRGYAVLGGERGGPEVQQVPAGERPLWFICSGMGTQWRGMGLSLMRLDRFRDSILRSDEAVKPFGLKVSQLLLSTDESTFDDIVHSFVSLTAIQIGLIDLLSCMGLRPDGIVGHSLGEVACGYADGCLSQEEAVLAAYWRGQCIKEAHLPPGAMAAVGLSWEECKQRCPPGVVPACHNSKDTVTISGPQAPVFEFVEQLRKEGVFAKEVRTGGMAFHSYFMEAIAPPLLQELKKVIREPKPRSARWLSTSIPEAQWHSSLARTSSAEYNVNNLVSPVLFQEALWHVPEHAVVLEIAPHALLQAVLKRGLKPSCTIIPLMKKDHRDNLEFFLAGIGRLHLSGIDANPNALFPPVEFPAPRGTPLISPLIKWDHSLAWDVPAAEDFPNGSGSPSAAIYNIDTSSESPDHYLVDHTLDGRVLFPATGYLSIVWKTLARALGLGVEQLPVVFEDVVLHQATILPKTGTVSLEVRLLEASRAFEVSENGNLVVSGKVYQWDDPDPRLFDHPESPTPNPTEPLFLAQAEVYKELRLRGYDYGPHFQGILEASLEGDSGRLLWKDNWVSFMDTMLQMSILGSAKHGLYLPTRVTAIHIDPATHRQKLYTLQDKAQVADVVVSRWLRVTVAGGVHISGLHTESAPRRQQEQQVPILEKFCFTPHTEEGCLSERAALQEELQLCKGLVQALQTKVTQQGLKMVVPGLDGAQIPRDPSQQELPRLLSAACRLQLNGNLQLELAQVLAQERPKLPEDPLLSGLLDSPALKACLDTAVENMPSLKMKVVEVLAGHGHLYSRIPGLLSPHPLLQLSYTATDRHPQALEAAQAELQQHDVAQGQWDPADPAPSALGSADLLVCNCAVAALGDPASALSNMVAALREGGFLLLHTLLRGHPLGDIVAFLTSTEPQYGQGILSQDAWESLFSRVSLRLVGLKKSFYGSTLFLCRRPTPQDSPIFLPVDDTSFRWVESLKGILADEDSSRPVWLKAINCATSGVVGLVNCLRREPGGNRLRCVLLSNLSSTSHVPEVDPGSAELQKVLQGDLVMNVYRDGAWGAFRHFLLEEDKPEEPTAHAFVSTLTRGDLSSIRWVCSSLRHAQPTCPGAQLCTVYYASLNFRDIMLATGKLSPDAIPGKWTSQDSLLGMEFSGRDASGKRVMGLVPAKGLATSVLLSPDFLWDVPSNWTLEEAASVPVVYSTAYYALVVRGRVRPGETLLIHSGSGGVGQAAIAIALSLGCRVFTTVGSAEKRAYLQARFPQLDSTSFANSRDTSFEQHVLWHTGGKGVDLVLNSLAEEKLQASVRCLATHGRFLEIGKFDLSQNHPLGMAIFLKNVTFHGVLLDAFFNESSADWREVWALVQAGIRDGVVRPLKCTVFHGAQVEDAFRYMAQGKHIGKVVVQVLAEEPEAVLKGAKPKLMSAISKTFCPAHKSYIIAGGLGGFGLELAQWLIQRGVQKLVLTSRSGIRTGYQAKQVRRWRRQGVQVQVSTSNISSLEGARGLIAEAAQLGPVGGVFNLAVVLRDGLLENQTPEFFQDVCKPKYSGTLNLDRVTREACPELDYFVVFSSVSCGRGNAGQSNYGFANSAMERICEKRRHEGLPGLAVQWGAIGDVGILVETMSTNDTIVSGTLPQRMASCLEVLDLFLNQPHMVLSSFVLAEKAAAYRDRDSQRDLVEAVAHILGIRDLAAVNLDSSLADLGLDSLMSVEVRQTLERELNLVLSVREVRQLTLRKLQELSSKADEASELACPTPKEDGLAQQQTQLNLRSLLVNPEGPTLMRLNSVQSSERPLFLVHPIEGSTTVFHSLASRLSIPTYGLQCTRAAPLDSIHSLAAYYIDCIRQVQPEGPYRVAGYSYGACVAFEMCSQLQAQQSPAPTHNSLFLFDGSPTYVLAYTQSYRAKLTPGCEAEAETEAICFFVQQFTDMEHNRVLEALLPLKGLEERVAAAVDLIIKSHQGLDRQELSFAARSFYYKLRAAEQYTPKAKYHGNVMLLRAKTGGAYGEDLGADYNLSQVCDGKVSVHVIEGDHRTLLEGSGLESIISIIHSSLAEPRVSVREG

Consider `COC(=O)N1CC(CN2C(=O)C3(CCOC3)N=C2c2ccc(-c3ccc4occc4c3)cc2)C1` (centres unmarked) [compound 904, methyl 3-((2-(4-(benzofuran-5-yl)phenyl)-4-oxo-7-oxa-1,3-diazaspiro[4.4]non-1-en-3-yl)methyl)azetidin-1-carboxylate], for which the inhibition (usually the change of the read-out against control, counted positive when it falls) at 10 µM was -24% and the IC50 is greater than 10 µM.
`COC(=O)N1CC(CN2C(=O)C3(CCOC3)N=C2c2ccc(-c3ccc4c(cnn4C)c3)cc2)C1` (centres unmarked) [compound 905, methyl 3-((2-(4-(1-methyl-1H-indazol-5-yl)phenyl)-4-oxo-7-oxa-1,3-diazaspiro[4.4]non-1-en-3-yl)methyl)azetidine-1-carboxylate]: the inhibition at 10 µM was -7% and the IC50 was greater than 10 µM.
`COC(=O)N1CC[C@@H](CN2C(=O)C3(CN(C(=O)OC)C3)N=C2c2ccc(-c3ccc(-c4cnn(C)c4)cc3)cc2)C1` [compound 906, (S)-methyl 7-((1-(methoxycarbonyl)pyrrolidin-3-yl)methyl)-6-(4′-(1-methyl-1H-pyrazol-4-yl)-[1,1′-biphenyl]-4-yl)-8-oxo-2,5,7-triazaspiro[3.4]oct-5-ene-2-carboxylate]: the inhibition at 10 µM was found to be 14% and the IC50 was greater than 10 µM.
The like results for `COC(=O)N1CC2(C1)N=C(c1ccc(-c3ccc4c(cnn4C)c3)cc1)N(C[C@@H]1CCN(C(=O)C(F)(F)F)C1)C2=O` [compound 907, (R)-methyl 6-(4-(1-methyl-1H-indazol-5-yl)phenyl)-8-oxo-7-((1-(2,2,2-trifluoroacetyl)pyrrolidin-3-yl)methyl)-2,5,7-triazaspiro[3.4]oct-5-ene-2-carboxylate] were, in that order, 21% and greater than 10 µM.
With `Cn1ncc2cc(-c3ccc(C4=NC5(CCOCC5)C(=O)N4CC4CN(C(=O)c5nccs5)C4)cc3)ccc21` [compound 908, 2-(4-(1-methyl-1H-indazol-5-yl)phenyl)-3-((1-(thiazole-2-carbonyl)azetidin-3-yl)methyl)-8-oxa-1,3-diazaspiro[4.5]dec-1-en-4-one], the inhibition at 10 µM worked out at 2% and the IC50 was greater than 10 µM.
Take `Cn1ncc2cc(-c3ccc(C4=NC5(CCOC5)C(=O)N4CC4CN(C(=O)c5nccs5)C4)cc3)ccc21` (centres unmarked) [compound 909, 2-(4-(1-methyl-1H-indazol-5-yl)phenyl)-3-((1-(thiazole-2-carbonyl)azetidin-3-yl)methyl)-7-oxa-1,3-diazaspiro[4.4]non-1-en-4-one]: the inhibition at 10 µM stood at 6% and the IC50 was greater than 10 µM.
On to `O=C(N1CC(CN2C(=O)C3(CCOCC3)N=C2c2ccc(-c3ccc4cccnc4c3)cc2)C1)C(F)(F)F` [compound 910, 2-(4-(quinolin-7-yl)phenyl)-3-((1-(2,2,2-trifluoroacetyl)azetidin-3-yl)methyl)-8-oxa-1,3-diazaspiro[4.5]dec-1-en-4-one], for which the inhibition at 10 µM is 12% and the IC50 was greater than 10 µM.
Regarding `Cn1cc(-c2ccc(-c3ccc(C4=NC5(CCOCC5)C(=O)N4CC4CN(C(=O)c5nccs5)C4)cc3)cc2)cn1` [compound 911, 2-(4′-(1-methyl-1H-pyrazol-4-yl)-[1,1′-biphenyl]-4-yl)-3-((1-(thiazole-2-carbonyl)azetidin-3-yl)methyl)-8-oxa-1,3-diazaspiro[4.5]dec-1-en-4-one], the inhibition at 10 µM stood at 7% and the IC50 is greater than 10 µM.
As to `CS(=O)(=O)N1CC(CN2C(=O)C3(CCOCC3)N=C2c2ccc(-c3ccc4cccnc4c3)cc2)C1` [compound 912, 3-((1-(methylsulfonyl)azetidin-3-yl)methyl)-2-(4-(quinolin-7-yl)phenyl)-8-oxa-1,3-diazaspiro[4.5]dec-1-en-4-one], the inhibition at 10 µM came to 1% and the IC50 is greater than 10 µM.
On to `CS(=O)(=O)N1CC[C@@H](CN2C(=O)C3(CCOCC3)N=C2c2ccc(-c3ccc4occc4c3)cc2)C1` [compound 913, (S)-2-(4-(benzofuran-5-yl)phenyl)-3-((1-(methylsulfonyl)pyrrolidin-3-yl)methyl)-8-oxa-1,3-diazaspiro[4.5]dec-1-en-4-one], for which the inhibition at 10 µM was found to be 0.4% and the IC50 was greater than 10 µM.
